Assay results as given in a melting point compilation (Tetko et al.).

Structure (SMILES)	melting point [°C]
O=S(=O)(Cl)c1occc1C1OCCO1	34 to 39
CC(C)(C)CC(=O)C=C1Nc2ccccc2NC1=CC(=O)CC(C)(C)C	220 to 222
Cc1c(N/N=C2/C(=O)N(c3ccccc3)N=C2C(F)(F)F)c(=O)n(-c2ccccc2)n1C	185
CC12CCC(C(=CC(Cc3ccccc3)C(=O)O)C1=O)C2(C)C (stereo not drawn)	127
Oc1ccc2cc(Br)ccc2c1	128
CCN(CC)CCNC(=O)c1cc(Cl)c(N)cc1OC	146
Cc1nc([N+](=O)[O-])cn1C(C)C	86
O=C(O)C(O)(c1ccccc1)C1CCCCC1 (stereo not drawn)	163 to 164
CCC(C1CCCCC1)C1CCCCC1	-23.5
O=C(CBr)c1ccccc1[N+](=O)[O-]	55
O=C(O)c1ccccc1CCc1ccccc1	127 to 132
CCCC(=NOCC)C1=C(O)CC(C2CCCSC2)CC1=O (stereo not drawn)	37.1
Cc1cccnc1C(N)=S	120
Cc1ccc2c(C)c(C)ccc2c1	14
O=[N+]([O-])c1ccc(C=Cc2cccc3ccccc23)c([N+](=O)[O-])c1	228
c1cc2c(c3c1CCCC3)CCCC2	16.7
Brc1cnc2c(c1)OCCN2	116 to 119
Cc1nn(-c2ccccc2)c(N)c1C#N	129 to 131
COc1ccccc1C=CC(=O)c1ccc(O)cc1O	177
NNC(=O)c1ccccc1Oc1ccccc1	99 to 103
CC(CCc1oc2ccc(Br)cc2c1-c1ccc(C)o1)=NO	132
CC1(C)C=Cc2c(ccc3c2OC2c4ccc(O)cc4OCC32)O1 (stereo not drawn)	178
O=C(Cl)c1ccsc1Br	61 to 62
COc1ccc(-c2onc(C(=O)c3ccc(C)cc3)c2S(=O)(=O)c2ccccc2)cc1	170

Structure (SMILES)	melting point [°C]
CSC(=Nc1ccccc1)C(C#N)=C(N)SC	177
Cc1ccc2nc3sc(=O)sc3nc2c1	170
COC1CCC(C2C(=O)NC(=O)NC2=O)CC1 (stereo not drawn)	215
CC(CCc1ccccc1)NC(C)C(O)c1cc(I)c(O)c(I)c1 (stereo not drawn)	212
CCOC(=O)c1ccccc1O	2 to 3
Cn1nc(CCl)cc1-c1ccco1	72 to 73
CCOC(=O)C(Br)CCC(Br)C(=O)OCC (stereo not drawn)	66 to 68
CC1=C(C)C(=O)C(C(CCCCCC(=O)O)c2ccccc2)=C(C)C1=O (stereo not drawn)	128
FC(F)=C(Cl)C(F)(F)F	-130
CC1CCC(C(C)C)C(OC(=O)C(C(=O)c2ccccc2)c2ccccc2)C1 (stereo not drawn)	115
OC(c1ccc(Cl)cc1)c1cc2ccccc2o1 (stereo not drawn)	48.5
COC(=O)Nc1nc2ccccc2[nH]1	305
O=[N+]([O-])c1ccc2nc(C(Cl)(Cl)Cl)[nH]c2c1	210 to 212
CC(CO)c1ccccc1 (stereo not drawn)	-13
N#CCN1CCCCC1	25
Cc1nc(C=O)cs1	56 to 58
Nc1ccccc1F	-29
O=C(C=Cc1ccc(Cl)c(Cl)c1)C=Cc1ccc(Cl)c(Cl)c1	175 to 177
COC1OC(COC(=O)C(C)(C)C)C(O)C(OC(=O)C(C)(C)C)C1O (stereo not drawn)	89.8
CNC(=O)Oc1cc(C(C)(C)C)cc(C(C)(C)C)c1	103
CC(C)(C)C(=O)Nc1ncccc1C=O	87 to 91
O=C(O)CSC(=S)SCC(=O)O	170 to 175
O=C(O)C(F)(F)C(F)(F)C(F)(F)C(F)(F)C(F)(F)C(F)(F)C(F)(F)C(F)(F)C(F)(F)C(F)(F)C(F)(F)C(F)(F)F	118 to 122
Cc1nc(-c2ccc(CBr)cc2)no1	103 to 104

Structure (SMILES)	melting point [°C]
CC(C)(C)OC(=O)N[C@H]1CCCNC1	125
Cc1ccc(N=C2NCCN2)c(Cl)c1	149
CC12CCC(=O)CC1(O)CCC2=O (single isomer, unassigned; (+))	110 to 118
CCOC(=O)c1cc(C(C)=O)ccc1OCC	53
COc1c(Br)ccc2c1C(=O)C2	118
CC(=O)C(F)(F)F	-78
CC1C(=O)OC(C)(C)OC1=O	109 to 113
O=C(OCc1ccccc1)c1ccc(O)cc1	112
COC(=O)c1ccc(N)c(Br)c1	104 to 108
CC(=O)N(C)c1ccccc1C	55.5
O=[N+]([O-])c1ccc(S(=O)(=O)Cl)cc1C(F)(F)F	64
CC(C)Nc1ccccc1	-10
O=C(O)CNCC(=O)O	248
Cc1cc(CO)ccc1[N+](=O)[O-]	56 to 60
CCOC(=O)C(C#N)=Cc1ccc(-c2ccccc2OC)o1	120 to 121
N#CCOc1cccc(Cl)c1	29
O=C1CCCO1	-43.3
Cc1cc(C(=O)O)c2ccccc2n1	240 to 242
Clc1cc(Cl)cc(Br)c1	83
O=C(O)c1cccc2ccsc12	176 to 178
COC(=O)c1cc(Br)cc(Br)c1N	88
COc1c(F)c(F)cc(C(=O)O)c1F	115
COC(=O)Nc1nc2cc(C(=O)c3ccc(F)cc3)ccc2[nH]1	260
O=CC(F)(F)C(F)(F)C(F)(F)C(F)(F)C(F)(F)C(F)(F)C(F)(F)C(F)(F)C(F)(F)C(F)(F)F	70 to 72

Structure (SMILES)	melting point [°C]
NC(=O)c1cc([N+](=O)[O-])ccc1Cl	179
BrC(Br)(Br)c1ccc2ccccc2n1	128
Nc1cccc(-c2ccncc2)c1	167 to 168
CCCCCCCCCCCCCCCCCCCCC(=O)O	74 to 76
Cc1ccc(C(=O)C=Cc2ccc(-c3ccc([N+](=O)[O-])cc3)o2)o1	178 to 179
CCCCCCCCCCOc1ccc(C(C)=O)cc1	35 to 37
OCCN(CCO)CCCc1ccc(COc2ccccc2)cc1	63 to 64
O=C(O)c1cccc2cc[nH]c12	202 to 204
COC(=O)CCc1ccc2c(c1)CCC(=O)N2	134
CCC(C)/N=C(\C)c1c(O)c2ccccc2n(-c2ccccc2)c1=O (stereo not drawn)	193 to 194
C=C(Br)C(=O)O	68
Fc1cc(Br)cc(Br)c1N=C=S	50 to 51
CC(=O)Nc1ccccc1/C=C/c1cc(/C=C/c2ccccc2)c([N+](=O)[O-])cc1[N+](=O)[O-]	265
Cc1c(N)cccc1C(=O)O	187
COc1ccc(C=O)c(C)c1C	53
COc1c(Cl)c(Cl)cc(Cl)c1Cl	88.5
O=[N+]([O-])c1ccc(-n2cc[nH]c2=S)cc1	232 to 233
BrC1(c2ccccc2)c2ccccc2-c2ccccc21	97
COc1c(C(C)(C)C)cc([N+](=O)[O-])c(C)c1[N+](=O)[O-]	85
Cn1cncc1C(=O)NN	186 to 187
O=[N+]([O-])c1ccc(O)cc1F	92 to 95
